Reference: patent US20220363689A1, “INHIBITOR OF BTK AND MUTANTS THEREOF” (Newave Pharmaceutical Inc., priority 2019, published 2022)
Read-outs that look alike come from different tables or passages of the source. Blank lines part the entries; values can stand above or below the molecule they belong to.

Legend:
[1] = system: liver cancer cell line HepG2; test: HepG2 in vitro liver toxicity assay (ATPlite); assay type: cell-based; details: another experiment, about 72 hours incubation, read-out: HepG2 IC50 (another experiment)
Experimental: Cell antiproliferation is assayed by PerkinElmer ATPlite™ Luminescence Assay System. Briefly, the liver cancer cell line HepG2 are plated at a density of about 1×10^4 cells per well in Costar 96-well plates, and are incubated with different concentrations of compounds for about 72 hours in medium supplemented with 5% FBS. One lyophilized substrate solution vial is then reconstituted by adding 5 mL of substrate buffer solution, and is agitated gently until the solution is homogeneous. About 50 μL of mammalian cell lysis solution is added to 100 μL of cell suspension per well of a microplate, and the plate is shaken for about five minutes in an orbital shaker at −700 rpm. This procedure is used to lyse the cells and to stabilize the ATP. Next, 50 μL substrate solution is added to the wells and microplate is shaken for five minutes in an orbital shaker at −700 rpm. Finally, the luminescence is measured by a PerkinElmer TopCount® Microplate Scintillation Counter. Such assays, carried out with a range of doses of test compounds, allow the determination of the cellular anti-antiproliferative IC50 of the compounds of the present invention.

Mice PK study = assay type: in vivo; details: plasma, CD-1 mouse, po, 25 mg/kg
Experimental: The pharmacokinetics of compounds were evaluated in CD-1 mouse via Intravenous and Oral Administration. The IV dose was administered as a slow bolus in the Jugular vein, and oral doses were administered by gavage. The formulation for IV dosing is 5% DMSO in 20% HPBCD in water, and the PO formulation is 2.5% DMSO, 10% EtOH, 20% Cremphor EL, 67.5% D5W. The PK time point for the IV arm was 5, 15, 30 min, 1, 2, 4, 6, 8, 12, 24 hours post dose, and for PO arm was 15, 30 min, 1, 2, 4, 6, 8, 12, 24 hours post dose. Approximately 0.03 mL blood was collected at each time point. Blood of each sample was transferred into plastic micro centrifuge tubes containing EDTA-K2 and plasma was collected within 15 min by centrifugation at 4000 g for 5 minutes in a 4° C. centrifuge. Plasma samples were stored in polypropylene tubes. The samples were stored in a freezer at −75±15° C. prior to analysis. Concentrations of compounds in the plasma samples were analyzed using a LC-MS/MS method. WinNonlin (Phoenix™, version 6.1) or other similar software was used for pharmacokinetic calculations. The following pharmacokinetic parameters were calculated, whenever possible from the plasma concentration versus time data: IV administration: C0, CL, Vd, T1/2, AUCinf, AUClast, MRT, Number of Points for Regression; PO administration: Cmax, Tmax, T1/2, AUCinf, AUClast, F %, Number of Points for Regression. The pharmacokinetic data was described using descriptive statistics such as mean, standard deviation. Additional pharmacokinetic or statistical analysis was performed at the discretion of the contributing scientist, and was documented in the data summary. For comparison purpose, the PK results of oral dosing of po, 25 mg/kg of Acalbrutinib, a FDA approved BTK inhibitor, were obtained using the same methods and shown in the Table below.

[2] = Phase I clinical trials, formulations containing GDC-0853; cited from earlier work
[3] = dogs, even at higher doses; cited from earlier work
[4] = rats, treatment for longer than 7 days; cited from earlier work
[5] = mice, even at higher doses; cited from earlier work
[6] = system: basophil activation, B cell receptor activation, and constitutive p-BTK activity in whole blood lysates; details: read-out: IC50s for basophil activation, B cell receptor activation, and constitutive p-BTK activity; cited from earlier work
WT BTK [7] = target: T1, WT BTK (Homo sapiens, UniProt Q06187); test: In vitro dialysis assay (irreversibility assay), WT BTK; assay type: biochemical; details: reversible or irreversible/covalent inhibition after 24 h dialysis
T1 sequence (Q06187 whole entry): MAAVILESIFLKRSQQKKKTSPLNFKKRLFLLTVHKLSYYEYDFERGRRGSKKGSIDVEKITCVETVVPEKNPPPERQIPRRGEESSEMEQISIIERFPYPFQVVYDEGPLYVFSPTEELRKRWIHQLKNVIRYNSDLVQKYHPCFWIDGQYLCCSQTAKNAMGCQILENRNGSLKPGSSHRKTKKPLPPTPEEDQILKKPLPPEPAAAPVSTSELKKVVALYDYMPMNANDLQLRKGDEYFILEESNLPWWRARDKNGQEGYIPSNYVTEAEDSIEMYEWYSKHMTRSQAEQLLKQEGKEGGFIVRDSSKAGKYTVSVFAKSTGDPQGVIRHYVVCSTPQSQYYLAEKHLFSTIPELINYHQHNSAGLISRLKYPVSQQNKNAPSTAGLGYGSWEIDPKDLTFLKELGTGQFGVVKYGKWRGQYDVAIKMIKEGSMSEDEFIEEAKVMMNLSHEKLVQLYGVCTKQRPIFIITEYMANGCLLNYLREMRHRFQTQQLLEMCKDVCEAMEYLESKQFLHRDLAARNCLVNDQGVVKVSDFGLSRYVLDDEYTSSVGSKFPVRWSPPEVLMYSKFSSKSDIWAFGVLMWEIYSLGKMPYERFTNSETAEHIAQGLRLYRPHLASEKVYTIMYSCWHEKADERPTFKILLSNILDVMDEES
Experimental: The compound-enzyme complex was dialyzed against the same buffer supplemented with 40 mM ATP for 24 hr. Cumulative dialysis factor>160,000×. After dialysis, the BTK activity was measured in the presence […] and 1 mM substrate peptide and compared to that in non-dialyzed samples. Assay buffer: 100 mM HEPES, pH7.5; […]; 5 mM MgCl2; 1 mM DTT. In this study, Ibrutiib (a FDA approved irreversible BTK inhibitor) was used as a positive control and Saurosporine (a reversible BTK inhibitor) was used as a negative control.

C4815S BTK enzyme = C4815S BTK enzyme (Homo sapiens, UniProt Q06187, C481S); test: Reversibility of binding to C481S BTK enzyme; assay type: biochemical; details: Cysteine residue not available for covalent binding
C4815S BTK enzyme, sequence (Q06187 whole entry C481S): as the sequence (Q06187 whole entry) above, with C481S counted along it

WT BTK [8] = target: T1, WT BTK; test: Caliper-based kinase assay, WT BTK; assay type: biochemical; details: 0.5 nM enzyme, ATP 16 μM, room temperature 3 h; read-out: WT BTK IC50 (nM) (irreversible inhibition)
Experimental: A Caliper-based kinase assay (Caliper Life Sciences, Hopkinton, Mass.) was used to measure inhibition of WT and […] Btk kinase activity of a compound of the present disclosure. […] The reaction was then terminated with EDTA, final concentration 20 mM and the phosphorylated reaction product was quantified on a Caliper Desktop Profiler (Caliper LabChip 3000).

AUC (Mice PK study): 1450 ng·h/mL
half-life (Mice PK study; read-out: t ½ (converted)): 1.1 h
SMILES: CC#CC(=O)N1CCC[C@H]1c1nc(-c2ccc(C(=O)Nc3ccccn3)cc2)c2c(N)nccn12 [Acalabrutinib, reference compound]
IC50 ([1]; Homo sapiens, HepG2): > 40000 nM

SMILES: C[C@H]1CN(C2COC2)CCN1c1ccc(Nc2cc(-c3ccnc(N4CCn5c(cc6c5CC(C)(C)C6)C4=O)c3CO)cn(C)c2=O)nc1 [GDC-0853]
Tolerability [2]: well-tolerated
Pancreatic toxicity [3]: does not occur
Pancreatic toxicity [4]: pancreatic toxicity
Pancreatic toxicity [5]: does not occur
IC50 [6]: 2 to 9 nM
Conclusion (WT BTK) (WT BTK [7]): Reversible

Mode of binding to C481S BTK (C4815S BTK enzyme): reversibly bind
Conclusion (WT BTK) (WT BTK [7]): irreversible/covalent inhibition
SMILES: C=CC(=O)Nc1cc(Nc2nc(-c3ccnc(N4CCn5c(cc6c5CC(C)(C)C6)C4=O)c3CO)cn(C)c2=O)ccc1N1CCN(C)CC1 [Example 2, N-(5-((6-(2-(7,7-dimethyl-1-oxo-1,3,4,6,7,8-hexahydro-2H-cyclopenta[4,5]pyrrolo[1,2-a]pyrazin-2-yl)-3-(hydroxymethyl)pyridin-4-yl)-4-methyl-3-oxo-3,4-dihydropyrazin-2-yl)amino)-2-(4-methylpiperazin-1-yl)phenyl)acrylamide]

IC50 (WT BTK [8]): 0.058 nM
Conclusion (WT BTK) (WT BTK [7]): Irreversible/covalent inhibition
SMILES: C=CC(=O)Nc1cc(Nc2nc(-c3ccnc(N4CCc5c(sc6c5CCCC6)C4=O)c3CO)cn(C)c2=O)ccc1N1CCN(C2CCOCC2)C[C@@H]1C [Example 56, N-[5-([6-[3-(hydroxymethyl)-2-[6-oxo-8-thia-5-azatricyclo[7.4.0.0^[2,7]]trideca-1(9), 2(7)-dien-5-yl]pyridin-4-yl]-4-methyl-3-oxopyrazin-2-yl]amino)-2-[(2S)-2-methyl-4-(oxan-4-yl)piperazin-1-yl]phenyl]prop-2-enamide]
IC50 [1]: 26000 nM
